Test results taken from paper PMC4264242, “Androgen Receptor Antagonists and Anti-Prostate Cancer Activities of Some Newly Synthesized Substituted Fused Pyrazolo-, Triazolo- and Thiazolo-Pyrimidine Derivatives” (International Journal of Molecular Sciences, 2014).
Numbering of substitutions follows the chain as printed. Entries after “also recorded” stand apart in the source; their conditions may differ.

Columns and labels:
castrated immature rats = test: In vivo anti-androgenic activity in castrated immature rats treated with testosterone propionate; parameters: species or system rat; settings: for % (Inhibition), in vivo anti-androgen activity: inhibition of TP effect (TP 0.5 mg/kg s.c. once daily for 5 days), tested compound 10-30 mg/kg p.o.; for ED50: Rattus norvegicus, read-out: ED50, in vivo anti-androgen activity
From the text: […] male Wistar rats were obtained from the Animal House Colony, Research Institute of Ophthalmology, Giza, Egypt. Prepubertal male rats aged 3 weeks were castrated using the scrotal route under ether anesthesia.

[1] = biological target: T1, wild type AR in PC-3 cells (Homo sapiens, UniProt P10275); test: Anti-prostate cancer screening, anti-androgenic bioassay (wild type AR transactivation) in PC-3 cells; type: cell-based; settings: PC-3 cells transfected with wild type AR, 1 nM DHT, 24 h
T1 construct: expressed in transfected cells; host or cells: PC-3 cells (lack endogenous functional AR), transient transfection with SuperFect
T1 sequence (P10275 1-920): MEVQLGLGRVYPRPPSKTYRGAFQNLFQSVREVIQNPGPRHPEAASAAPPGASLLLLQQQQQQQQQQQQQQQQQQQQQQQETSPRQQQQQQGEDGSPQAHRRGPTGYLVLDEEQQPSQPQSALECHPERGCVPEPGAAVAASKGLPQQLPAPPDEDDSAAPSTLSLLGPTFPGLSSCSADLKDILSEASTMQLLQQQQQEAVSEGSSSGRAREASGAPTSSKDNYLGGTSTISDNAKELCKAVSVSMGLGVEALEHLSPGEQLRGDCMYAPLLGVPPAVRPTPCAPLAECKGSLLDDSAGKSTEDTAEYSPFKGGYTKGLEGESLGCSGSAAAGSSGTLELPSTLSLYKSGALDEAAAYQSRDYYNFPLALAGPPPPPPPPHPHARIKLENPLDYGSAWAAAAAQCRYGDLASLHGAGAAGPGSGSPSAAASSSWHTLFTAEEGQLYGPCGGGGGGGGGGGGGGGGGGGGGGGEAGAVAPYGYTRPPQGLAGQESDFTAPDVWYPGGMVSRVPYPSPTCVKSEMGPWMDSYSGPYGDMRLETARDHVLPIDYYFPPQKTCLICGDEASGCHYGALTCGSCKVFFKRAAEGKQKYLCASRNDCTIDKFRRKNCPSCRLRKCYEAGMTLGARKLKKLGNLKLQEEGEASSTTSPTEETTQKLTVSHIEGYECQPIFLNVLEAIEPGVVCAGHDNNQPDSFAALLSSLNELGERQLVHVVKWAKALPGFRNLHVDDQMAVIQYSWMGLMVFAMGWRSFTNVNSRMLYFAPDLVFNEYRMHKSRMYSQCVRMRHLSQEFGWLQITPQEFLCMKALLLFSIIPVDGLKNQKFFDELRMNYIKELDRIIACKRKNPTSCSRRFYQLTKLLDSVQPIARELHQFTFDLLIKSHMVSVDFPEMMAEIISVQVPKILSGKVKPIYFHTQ
Experimental: (§1) Human prostate cancer LNCaP and PC-3 cells were maintained in RPMI medium and Dulbecco’s minimum essential medium (DMEM), respectively. Both media were supplemented with penicillin (25 units/mL), streptomycin ([…]), and 10% fetal calf serum. For the androgen receptor transactivation assay, an androgen-dependent reporter gene transcription test was employed as the primary screening for potential anti-androgen identification. This assay was first performed in LNCaP cells, which express a clinically relevant mutant AR. […] Wild type AR transactivation assay was performed in PC-3 host cells, which lack an endogenous, functional AR. The method and conditions of cell and gene transfection have been described previously. In brief, cells were plated in 24-well tissue culture dishes for 24 (PC-3 cells) or 48 (LNCaP cells) h prior to transfection. Subsequently, LNCaP cells were transfected with a reporter gene, MMTV-luciferase, which contains a MMTV-long terminal repeat (LTR) promoter and an androgen receptor binding element, and Renilla Luciferase Control Reporter Vectors 40 (PRL-SV40), which served as an internal control for transfection efficiency. PC-3 cells were transfected with a wild type AR expression plasmid, plasmide gene-5 androgen recptor (pSG5AR), in addition to the above-mentioned MMTV-luciferase reporter gene and PRL-SV40 internal control. SuperFect (Qiagen, Chatsworth, CA, USA) was employed as the transfection reagent following the manufacturer’s recommendations. At the end of a 5-h transfection, the medium was changed to DMEM or RPMI supplemented with 10% charcoal dextran-stripped, i.e., androgen-depleted, serum. After 24 h, the cells were treated with 1 nM of DHT and/or test compounds at the designated concentrations.
(§2) After 24 h the cells were harvested for luciferase activity assay using the Dual Luciferase Assay System (Promega, Madison, WI, USA.). The derived data was expressed as relative luciferase activity normalized to the internal luciferase control.

mutant AR in LNCaP cells = biological target: T2, mutant AR in LNCaP cells (Homo sapiens, UniProt P10275, T878A); test: Anti-prostate cancer screening, anti-androgenic bioassay (AR transactivation) in LNCaP cells; type: cell-based; settings: 1 nM DHT, 24 h
T2 construct: endogenous in cells; host or cells: LNCaP cells (only reporter plasmids transfected)
T2 sequence (P10275 1-920 T878A): T1 sequence (P10275 1-920) with T878A
Experimental: as §1, §2

SMILES	ED50, in vivo anti-androgen activity (castrated immature rats; castrated immature rats, TP 0.5 mg/kg s.c., compound p.o.)	% (Inhibition), in vivo anti-androgen activity (castrated immature rats)	% (Inhibition), in vivo anti-androgen activity (castrated immature rats; listed as compound 1)	IC50 PC-3, anti-prostate cancer activity [1]	IC50 LNCaP, anti-prostate cancer activity (mutant AR in LNCaP cells)	ED50 (castrated immature rats)	IC50 [1]	IC50 (mutant AR in LNCaP cells)
NNc1nc2c(ccc3ccccc32)s1 [Compound 1, 1-(naphtho[1,2-d]thiazol-2-yl)hydrazine]	Inactive	Inactive	devoid from any activities	devoid from any activities; also recorded: Inactive	devoid from any activities; also recorded: Inactive	–	–	–
N#Cc1cnn(-c2nc3c(ccc4ccccc43)s2)c1N [Compound 2, 2-[3-Amino-4-cyanopyrazol-2-yl]naphthalino[1,2-d]thiazole]	–	95.49%	–	–	–	0.049 mg/kg	157 nM	51.5 nM
Nc1ncnc2c1cnn2-c1nc2c(ccc3ccccc32)s1 [Compound 3]	–	91%	–	–	–	0.063 mg/kg	177 nM	58.6 nM
Nc1n[nH]c2c1cnn2-c1nc2c(ccc3ccccc32)s1 [Compound 4]	–	93.98%	–	–	–	0.051 mg/kg	179 nM	56.6 nM
Nc1nc(=S)[nH]c2c1cnn2-c1nc2c(ccc3ccccc32)s1 [Compound 5, 2-[6-Amino-3H-4-thiopyrimidino[4,5-c]pyrazol-2-yl]naphthalino[1,2-d]thiazole]	–	89.09%	–	–	–	0.089 mg/kg	190 nM	64.3 nM
N=c1sc(=S)[nH]c2c1cnn2-c1nc2c(ccc3ccccc32)s1 [Compound 6, 2-[6-Imino-3H-4-thiothiazino[4,5-c]pyrazol-2-yl]naphthalino[1,2-d]thiazole]	–	88.76%	–	–	–	0.092 mg/kg	201 nM	72.4 nM
CCO/C=N\c1c(C#N)cnn1-c1nc2c(ccc3ccccc32)s1 [Compound 8, 2-[3-Ethylimidoformat-4-cyanopyrazol-2-yl]naphthalino[1,2-d]thiazole]	–	85.43%	–	–	–	0.097 mg/kg	279 nM	78.5 nM
N#Cc1cnn(-c2nc3c(ccc4ccccc43)s2)c1/N=C\NN [Compound 9, 2-[3-Imidoformic hydrazido-4-cyanopyrazol-2-yl]naphthalino[1,2-d]thiazole]	–	86.56%	–	–	–	0.095 mg/kg	269 nM	76.6 nM
Cc1nc2c3cnn(-c4nc5c(ccc6ccccc65)s4)c3ncn2n1 [Compound 10, 2-[6-Methyl[1,2,4]triazolo[2,3-c]pyrimidino[6,5-c]pyrazol-2-yl]naphthalino[1,2-d]thiazole]	–	98.87%	–	–	–	0.071 mg/kg	109 nM	43.5 nM
N=c1c2cnn(-c3nc4c(ccc5ccccc54)s3)c2ncn1NC(=O)c1ccccc1 [Compound 11]	–	90.01%	–	–	–	0.045 mg/kg	180 nM	61.6 nM
CCOC1SCC(=O)N1c1c(C#N)cnn1-c1nc2c(ccc3ccccc32)s1 (stereo not shown) [Compound 12, 2-[3-(2-Ethoxy-4-oxo-5-dihydro-1,3-thiazol-3-yl)-4-cyanopyrazol-2-yl]-naphthalino[1,2-d]thiazole]	–	84.65%	–	–	–	0.098 mg/kg	289 nM	80 nM
CCOC1SCC2NC(=O)c3cnn(-c4nc5c(ccc6ccccc65)s4)c3N21 (stereo not shown) [Compound 13, 2-[3-Ethoxy-5-dihydro-6H-7-oxo-[1,3]thiazolo[3,4-b]pyrimidino[4,5-c]pyrazol-2-yl]naphthalino[1,2-d]thiazole]	–	97.56%	–	–	–	0.047 mg/kg	146 nM	49.6 nM
